Like-named read-outs stand apart in the source and are kept apart here.

One test concerns α-amylase gene. The following applies: hepatopancreas, after 56 days, versus control, FIG. 2.
Test [1] has as its system whiteleg shrimps. The following applies: applied once or twice a day, 6 ponds.
Another test concerns Pangasius hypophthalmus. Nature of the test: Experiment 7C: pond trial on Pangasius in Bangladesh. It counts as in vivo. The note with it: overall results of the 8 ponds. The text has this: Pangas belonging to the genus of medium-large catfishes, is a relatively new and fast-growing fish species that has great potential for production and export growth in Bangladesh. Polyculture of pangasius (P. hypophthalmus) with carps is the existing culture practice along with monoculture being practiced by many households in Bangladesh.
Trials have been done in 2019 in Mymensingh region on 4 ponds with an average of 1,4 ha and an average depth of 1.5 m in the dry season and 2 m. in the rainy season (May to November). For feeding standard commercial pelleted feeds were used.

Test [2] relates to Pacific Whiteleg shrimp (Litopenaeus vannamei).
Protocol: An 8-week growth trial study on Pacific Whiteleg shrimp (Litopenaeus vannamei) (1.0 g/shrimp) in duplicate was conducted in a 3,200 m2 earthen pond (100,000 shrimps per 1,600 m2) at the GAP certified private shrimp farm, Nakhon Pathom province, Thailand. […] The pond size was 2 Rai (1 Rai is 1,600 m^2). Stocking density is 100,000 shrimps/1 Rai.
Shrimp were fed by automatic feeder four times a day according to the farming standard. […] The bespoke shrimp feed specification was Crude Protein 38%, Crude Fat 7%, and diet pellet sizes of 1.5 mm; 2.0 mm; 2.5 mm that were assigned across the trial period to optimise maximum intake.
Test [3] deals with whiteleg shrimps.
In test [4] the test system is Tiger shrimps (Penaeus monodon). The note with it: three ponds, applied after each change of water every 5 days. As for the experimental part: Tiger shrimps (Penaeus monodon), also named giant tiger prawn, asian tiger prawn or black tiger shrimp, is one of the most popular cultured shrimp species in the world.
A small scale trial was carried out in 2019 in Chittagong-Bangladesh in three ponds of +2.5 ha.

The next test has as its system trypsin gene. The note with it: hepatopancreas, after 56 days, versus control, FIG. 2. As for the experimental part:
At the end of the grow-out period, shrimp were sampled for the growth and feed utilisation metrics. Water quality parameters were measured three times daily. At the end of the trial, shrimps were assessed for the growth performance as described below. Shrimp from each treatment group were examined and the hepato-pancreas removed carefully from 10 individual animals and processed as described below.
For RNA extraction, hepatopancreases were extracted by using trizol reagent (Invitrogen, USA). Briefly, 1 ml of trizol reagent were added into 50-100 mg of tissue samples. then, the samples were homogenized at 3,500 rpm for 1 min by using Micro Smash MS-100R (TOMY, Japan). After incubated sample at RT for 5 min, 200 μl of chloroform were added and mixed vigorous. The samples were centrifuged at 12,000 rpm at 4° C. for 15 min. after collected supernatant into new 1.5 ml tube, 1 volume of isopropanol were added and incubated at −20° C. for 2 h or O/N. Next, RNA pellets were collected by centrifuged at 12,000 rpm at 4° C. for 15 min. then, the pellets were washed with 500 μl of 75% ethanol and dried pellet at 65° C. Lastly, 30 μl of RNase free water was added for dissolved RNA pellet. RNA concentration was measured by using nanodrop spectrophotometer (Thermo Fisher Scientific, USA).

Test [5] relates to whiteleg shrimps (Litopenaeus vannamei). As for the experimental part:
Water quality parameters, including salinity, dissolved oxygen, pH and total ammonia nitrogen (TAN) were monitored regularly in both control and treated ponds. The growth rate of the shrimps was monitored regularly. Total number was counted and mean body weight of shrimp was measured. Based on recording the weight of shrimp and counting the number of shrimps, weight gain, feed conversion ratio (FCR) and survival were calculated.

The next test concerns whiteleg shrimp. From the text:
Trials are done in Northern part, Central part and Southern part in Vietnam, 2020-2021.

The test system of test [6] is whiteleg shrimps. From the text:
In […] further experiments were done in Gujarat-India on whiteleg shrimps.
The source holds these as a separate data set.

Where [7] appears, read: all testing locations in Vietnam, 2020-2021.

Protocol for α-amylase gene: For RNA extraction, hepatopancreases were extracted by using trizol reagent (Invitrogen, USA). Briefly, 1 ml of trizol reagent were added into 50-100 mg of tissue samples. then, the samples were homogenized at 3,500 rpm for 1 min by using Micro Smash MS-100R (TOMY, Japan). After incubated sample at RT for 5 min, 200 μl of chloroform were added and mixed vigorous. The samples were centrifuged at 12,000 rpm at 4° C. for 15 min. after collected supernatant into new 1.5 ml tube, 1 volume of isopropanol were added and incubated at −20° C. for 2 h or O/N. Next, RNA pellets were collected by centrifuged at 12,000 rpm at 4° C. for 15 min. then, the pellets were washed with 500 μl of 75% ethanol and dried pellet at 65° C. Lastly, 30 μl of RNase free water was added for dissolved RNA pellet. RNA concentration was measured by using nanodrop spectrophotometer (Thermo Fisher Scientific, USA). […]
Real-time PCR was used to detected growth genes in shrimp.
Reaction mixture for real-time PCR was composed of 1 μl of 100 cDNA, 5 μl of 2× qPCRBIO SyGreen mix, forward and reverse primer at final concentration 0.2 μM and adjusted volume up to 10 μl by nuclease free water. […] The relative fold gene expression level was calculated by using the formula below: […]

For the substance “silicic acid [bioavailable silicic acid compound]”, the “α-amylase gene expression relative to housekeeping gene” value in the test on α-amylase gene was “down regulation”. Also, the “overall increase of the yield” value in the test with whiteleg shrimps [1] worked out at 19%. Further, in the test with Pangasius hypophthalmus (both treatments pooled), the “increase of overall yield” value is on record as 16.6%. The same substance yielded an overall yield in the test on Pangasius hypophthalmus (both treatments pooled (from 11.400 kg/ha/year)) of 13.300 kg/ha/year. Besides, in test [2] (8-weeks growth trial, FIG. 1 (control 9.48)), the “average (mean) weight of shrimp at end of trial” value came to 12.49 g. Further, in [2] (8 weeks, with silicic acid), the “Apparent net protein utilization (%)” value is 36.4 ± 1.4 ^A %, the “Average daily gain” value amounted to 0.12 ± 0.02 g/day, the Feed conversion ratio is recorded as 1.18 ± 0.05 ^A and the “Final weight (g/shrimp)” value is given as 12.49 ± 2.46 g/shrimp. Moreover, in test [2] (8 weeks, with silicic acid), the “Specific growth rate (%/day)” value is 3.21 ± 0.20 ^A %/day, the “Survival rate (%)” value is 69.8 ± 4.5 ^A % and the “Total biomass (kg of harvested shrimp)” value is 1,047 ± 208.25 ^A kg. The “shrimp performance under pond rearing conditions” value in [2] (exposed for 8 weeks) was “significantly better”. Moreover, in the test with whiteleg shrimps [3] (4 ponds, application every 3 days, brackish water), the “average yield increase of shrimps” value was found to be 24.27%. The “feed conversion rate (FCR)” value in the test with whiteleg shrimps [3] (average of treated ponds (control ponds 1.5)) was determined as 1.37. For the same substance, the “overall yield increase (compared to control)” value in [4] was determined as 18.4%. In addition, in the test with trypsin gene, the “trypsin gene expression relative to housekeeping gene” value is given as “down regulation”. Besides, in test [5] (first experiments, 2017, brackish ponds, Gujarat), the “average weight gain of the shrimps compared to control pond” value is 26%. Moreover, in test [5] (second trial), the “increase (average weight gain) compared to control” value stood at 17.5%. In addition, the “environment, growth, survival, and energy efficiency of shrimp production” value in the test with whiteleg shrimp (Central Vietnam) was “remarkably good results”. Further, in the test with whiteleg shrimp (setting [7]), the “higher yields (average)” value is 18.7% and the “larger shrimps (average)” value was 14%. In addition, the “average yield increase of shrimps” value in the test with whiteleg shrimps [6] (8 ponds, 1.5 liters of 2.5% product every 15 days, compared to control) was determined as 18.3%. In addition, the “food conversion rate (FCR)” value in the test on whiteleg shrimps [6] (average of treated ponds (control ponds 1.52)) is listed as 1.45.

Source of the values: patent US20240224953A1 (Barlaa B.V., priority 2021, published 2024).
